We go through 18 molecules from patent US10428080B2, “TBK/IKK inhibitor compounds and uses thereof” (Merck Patent GmbH, priority 2015, dated 2019).

Test [1] deals with phosphorylation of the IRF-3 protein in MDA-MB-468 cells. Kind of test: pIRF3 immunocytochemistry cell based assay. The following applies: Homo sapiens; MDA-MB-468 cells, Poly(I:C) stimulation; read-out: pIRF3 IC50. Put shortly: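 MDA-MB-468 cells got compounds (10-point, 3-fold from 10 uM) for 1 h at 37 °C, then 10 ug/ml Poly(I:C) for 2 h. Fixed, permeabilized cells were immunostained for pIRF3 with AlexaFluor488 and counterstained with PI. % phosphorylation was read by laser scanning cytometry, and IC50 curves were fitted.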

Another test addresses T1, IKKε (Homo sapiens, UniProt Q14164).
T1 sequence (Q14164 1-716): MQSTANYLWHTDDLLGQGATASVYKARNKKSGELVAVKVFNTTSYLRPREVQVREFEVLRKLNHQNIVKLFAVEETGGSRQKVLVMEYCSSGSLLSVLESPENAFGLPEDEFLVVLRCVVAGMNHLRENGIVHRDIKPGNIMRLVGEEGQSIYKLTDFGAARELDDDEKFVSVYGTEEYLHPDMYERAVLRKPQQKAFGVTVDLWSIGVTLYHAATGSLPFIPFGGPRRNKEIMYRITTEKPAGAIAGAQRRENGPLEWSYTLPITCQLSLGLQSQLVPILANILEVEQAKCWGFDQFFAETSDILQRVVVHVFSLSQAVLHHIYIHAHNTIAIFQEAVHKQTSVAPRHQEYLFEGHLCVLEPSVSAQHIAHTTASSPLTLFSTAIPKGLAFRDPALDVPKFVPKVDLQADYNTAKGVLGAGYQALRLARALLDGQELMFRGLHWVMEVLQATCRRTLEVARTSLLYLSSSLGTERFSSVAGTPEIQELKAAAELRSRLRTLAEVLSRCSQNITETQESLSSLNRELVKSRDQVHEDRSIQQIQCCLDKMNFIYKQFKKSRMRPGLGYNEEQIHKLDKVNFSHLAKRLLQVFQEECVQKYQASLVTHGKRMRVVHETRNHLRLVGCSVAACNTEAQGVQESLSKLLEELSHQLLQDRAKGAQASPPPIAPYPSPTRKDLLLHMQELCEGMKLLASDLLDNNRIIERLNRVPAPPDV
The test is described as follows: IKKe Biochemical Assay. The following applies: read-out: IKKε IC50. Summed up: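 Recombinant IKKε and substrate were incubated with compound (10-point 1:4 series, top 30 uM final, 1% DMSO) for 90 min at 25° C, then stopped. Substrate-to-product conversion was read by LabChip microfluidic mobility shift; 10 uM staurosporine served as full-inhibition wells.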

Another test addresses T2, TBK1 (Homo sapiens, UniProt Q9UHD2).
T2 sequence (Q9UHD2 1-729): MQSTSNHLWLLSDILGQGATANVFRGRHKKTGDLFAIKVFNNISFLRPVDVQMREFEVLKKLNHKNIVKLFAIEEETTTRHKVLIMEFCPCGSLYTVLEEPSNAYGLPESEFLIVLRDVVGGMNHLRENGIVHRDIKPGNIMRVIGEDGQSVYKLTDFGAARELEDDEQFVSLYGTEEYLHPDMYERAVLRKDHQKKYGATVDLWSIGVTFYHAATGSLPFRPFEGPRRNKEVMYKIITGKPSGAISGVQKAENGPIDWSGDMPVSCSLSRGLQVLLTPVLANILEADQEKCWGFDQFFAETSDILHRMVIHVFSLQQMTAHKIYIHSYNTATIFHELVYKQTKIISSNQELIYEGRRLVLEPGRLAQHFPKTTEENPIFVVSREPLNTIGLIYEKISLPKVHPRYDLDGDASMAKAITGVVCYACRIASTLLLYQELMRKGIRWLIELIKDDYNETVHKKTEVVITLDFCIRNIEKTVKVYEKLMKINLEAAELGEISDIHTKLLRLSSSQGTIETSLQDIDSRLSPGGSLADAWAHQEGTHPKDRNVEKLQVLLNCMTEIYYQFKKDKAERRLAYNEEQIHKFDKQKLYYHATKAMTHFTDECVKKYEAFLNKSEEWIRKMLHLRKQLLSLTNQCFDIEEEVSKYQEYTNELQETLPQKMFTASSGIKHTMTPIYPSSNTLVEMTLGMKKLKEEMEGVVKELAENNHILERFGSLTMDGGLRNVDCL
Kind of test: TBK Biochemical Assay. The note with it: read-out: TBK1 IC50. Put shortly: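 TBK1 enzyme and substrate incubated with compounds (10-point 1:4 dilution, top 30 uM final, 1% DMSO) for 90 min at 25° C, then stopped. Substrate/product peaks read by microfluidic mobility-shift (Caliper LabChip); 10 uM staurosporine as full-inhibition control.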

Where a name gives a salt, the structure may show the parent alone.

By IC50 is commonly meant the concentration at which inhibition is half-maximal. As to `CC1(O)CN(C(=O)c2ccc(-c3cc4nccc(-c5ccc(OC6CCOCC6)c(C#N)c5)c4o3)cc2)C1` [Compound 124, 5-{2-[4-(3-Hydroxy-3-methyl-azetidine-1-carbonyl)-phenyl]-furo[3,2-b]pyridin-7-yl}-2-(tetrahydro-pyran-4-yloxy)-benzonitrile], the figures for the IC50 (in test [1]; at IKKε; on TBK1) were 1000 to 5000 nM, under 100 nM and under 100 nM, respectively.
For `COc1cc(C(=O)NC2CCN(C(=O)OC(C)(C)C)C2)ccc1-c1cc2nccc(-c3ccc(OC4CCOCC4)c(C#N)c3)c2o1` (stereo not drawn) [Compound 125, 3-(4-{7-[3-Cyano-4-(tetrahydro-pyran-4-yloxy)-phenyl]-furo[3,2-b]pyridin-2-yl}-3-methoxy-benzoylamino)-pyrrolidine-1-carboxylic acid tert-butyl ester], the IC50 was 100 to 1000 nM in test [1], under 100 nM at IKKε and under 100 nM on TBK1.
As to `CN(C)C(=O)c1ccc(-c2cc3nccc(-c4ccc(OC5CCOCC5F)c(C#N)c4)c3o2)cc1` (stereo not drawn) [Compound 129], the half-maximal inhibitory concentration (IC50) in test [1] is 100 to 1000 nM; at IKKε, under 100 nM; at TBK1, under 100 nM.
Turning to `COc1cc(C(=O)NC2CCNC2)ccc1-c1cc2nccc(-c3ccc(NC4CCOCC4)c(C#N)c3)c2o1` (stereo not drawn) [Compound 130, 4-{7-[3-Cyano-4-(tetrahydro-pyran-4-ylamino)-phenyl]-furo[3,2-b]pyridin-2-yl}-3-methoxy-N-pyrrolidin-3-yl-benzamide], the IC50 in test [1] is 100 to 1000 nM; at IKKε, under 100 nM; at TBK1 it was under 100 nM.
Turning to `N#Cc1cc(-c2ccnc3cc(-c4ccc(C(=O)N5CCN(C6CC6)CC5)cc4)oc23)ccc1OC1CCOCC1` [Compound 133, 5-{2-[4-(4-Cyclopropyl-piperazine-1-carbonyl)-phenyl]-furo[3,2-b]pyridin-7-yl}-2-(tetrahydro-pyran-4-yloxy)-benzonitrile], the IC50 in test [1] was 1000 to 5000 nM; at IKKε, under 100 nM; at TBK1, under 100 nM.
As for `COc1cc(C(=O)NC(C)(C)CN(C)C)ccc1-c1cc2nccc(-c3ccc(NC4CCOCC4)c(C#N)c3)c2o1` [Compound 134, 4-{7-[3-Cyano-4-(tetrahydro-pyran-4-ylamino)-phenyl]-furo[3,2-b]pyridin-2-yl}-N-(2-dimethylamino-1,1-dimethyl-ethyl)-3-methoxy-benzamide], the results for the concentration for half-maximal inhibition (IC50) (in test [1]; at IKKε; at TBK1) were 100 to 1000 nM, under 100 nM and under 100 nM, respectively.
On to `N#Cc1cc(-c2ccnc3cc(-c4ccc(C(=O)N[C@H]5CNCC[C@@H]5F)cc4)oc23)ccc1OC1CCOCC1` [Compound 135, 4-{7-[3-Cyano-4-(tetrahydro-pyran-4-yloxy)-phenyl]-furo[3,2-b]pyridin-2-yl}-N-((3S,4S)-4-fluoro-piperidin-3-yl)-benzamide], for which the IC50 in test [1] is 100 to 1000 nM; on IKKε, under 100 nM; on TBK1, under 100 nM.
Take `N#Cc1cc(-c2ccnc3cc(-c4ccc(C(=O)N5CC[C@H](F)C5)cc4)oc23)ccc1OC1CCOCC1` [Compound 136, 5-{2-[4-((S)-3-Fluoro-pyrrolidine-1-carbonyl)-phenyl]-furo[3,2-b]pyridin-7-yl}-2-(tetrahydro-pyran-4-yloxy)-benzonitrile]: the results for the IC50 (in test [1]; on IKKε; at TBK1) were 1000 to 5000 nM, under 100 nM and under 100 nM, respectively.
On to `N#Cc1cc(-c2ccnc3cc(-c4cnn(C5COC5)c4)oc23)ccc1OC1CCOCC1` [Compound 138], for which the IC50 was 1000 to 5000 nM in test [1], under 100 nM at IKKε and under 100 nM at TBK1.
As to `N#Cc1cc(-c2ccnc3cc(-c4ccc(C(=O)NC5CN6CCC5CC6)cc4F)oc23)ccc1OC1CCOCC1` (stereo not drawn) [Compound 139, N-(1-Aza-bicyclo[2.2.2]oct-3-yl)-4-{7-[3-cyano-4-(tetrahydro-pyran-4-yloxy)-phenyl]-furo[3,2-b]pyridin-2-yl}-3-fluoro-benzamide], the 50% inhibitory concentration (IC50) is 100 to 1000 nM in test [1], under 100 nM at IKKε and under 100 nM on TBK1.
On to `COc1cc(C(=O)N(C)C)ccc1-c1cc2nccc(-c3ccc(OC4CCCNC4)c(C#N)c3)c2o1` (stereo not drawn) [Compound 140, 4-{7-[3-Cyano-4-(piperidin-3-yloxy)-phenyl]-furo[3,2-b]pyridin-2-yl}-3-methoxy-N,N-dimethyl-benzamide Hydrochloride], for which the IC50 (in test [1]; at IKKε; at TBK1) was under 100 nM throughout.
As to `N#Cc1cc(-c2ccnc3cc(-c4ccc(C(=O)N[C@@H]5CNCC[C@H]5F)cc4)oc23)ccc1OC1CCOCC1` [Compound 141, 4-{7-[3-Cyano-4-(tetrahydro-pyran-4-yloxy)-phenyl]-furo[3,2-b]pyridin-2-yl}-N-((3R,4R)-4-fluoro-piperidin-3-yl)-benzamide], the values for the half-inhibitory concentration (IC50) (in test [1]; on IKKε; at TBK1) were 100 to 1000 nM, under 100 nM and under 100 nM, respectively.
In the case of `N#Cc1cc(-c2ccnc3cc(-c4cccc(C(=O)NC5CN6CCC5CC6)c4)oc23)ccc1OC1CCOCC1` (stereo not drawn) [Compound 143], the IC50 was 100 to 1000 nM in test [1], under 100 nM at IKKε and under 100 nM at TBK1.
In the case of `N#Cc1cc(-c2ccnc3cc(-c4ccc(C(=O)NC5CN6CCC5CC6)cc4)oc23)ccc1OC1CCOCC1` (stereo not drawn) [Compound 145, N-(1-Aza-bicyclo[2.2.2]oct-3-yl)-4-{7-[3-cyano-4-(tetrahydro-pyran-4-yloxy)-phenyl]-furo[3,2-b]pyridin-2-yl}-benzamide], the half-inhibitory concentration (IC50) in test [1] is 100 to 1000 nM; at IKKε, under 100 nM; on TBK1 it was under 100 nM.
`COc1cc(C(=O)NC2CN3CCC2CC3)ccc1-c1cc2nccc(-c3ccc(N4CC[C@@H](F)C4)c(C#N)c3)c2o1` (stereo partly drawn) [Compound 146, N-(1-Aza-bicyclo[2.2.2]oct-3-yl)-4-{7-[3-cyano-4-((R)-3-fluoro-pyrrolidin-1-yl)-phenyl]-furo[3,2-b]pyridin-2-yl}-3-methoxy-benzamide]: the 50% inhibitory concentration (IC50) in test [1] was 100 to 1000 nM; on IKKε, under 100 nM; on TBK1, under 100 nM.
In the case of `N#Cc1cc(-c2ccnc3cc(-c4ccc(C(=O)N5CCC(F)(F)C5)cc4)oc23)ccc1OC1CCOCC1` [Compound 148, 5-{2-[4-(3,3-Difluoro-pyrrolidine-1-carbonyl)-phenyl]-furo[3,2-b]pyridin-7-yl}-2-(tetrahydro-pyran-4-yloxy)-benzonitrile], the IC50 is 1000 to 5000 nM in test [1], under 100 nM on IKKε and under 100 nM at TBK1.
Regarding `COc1cc(C(=O)N(C)C)ccc1-c1cc2nccc(-c3ccc(OC4CCN(C)C4)c(C#N)c3)c2o1` (stereo not drawn) [Compound 149, 4-{7-[3-Cyano-4-(1-methyl-pyrrolidin-3-yloxy)-phenyl]-furo[3,2-b]pyridin-2-yl}-3-methoxy-N,N-dimethyl-benzamide], the values for the half-inhibitory concentration (IC50) (in test [1]; on IKKε; on TBK1) were 100 to 1000 nM, under 100 nM and under 100 nM, respectively.
As for `COc1cc(C(=O)N(C)C)ccc1-c1cc2nccc(-c3ccc(OC4CCN(C)CC4)c(C#N)c3)c2o1` [Compound 150, 4-{7-[3-Cyano-4-(1-methyl-piperidin-4-yloxy)-phenyl]-furo[3,2-b]pyridin-2-yl}-3-methoxy-N,N-dimethyl-benzamide], the half-maximal inhibitory concentration (IC50) in test [1] was 100 to 1000 nM; on IKKε, under 100 nM; on TBK1, under 100 nM.
